# Values joined by “and” are separate entries in the source; they are usually repeats but may differ in a detail not shown here. Identical values can stand only once.
# Legend:
# NIH3T3 = assay: Intracellular proteolysis of long half-life proteins; assay type: cell-based, mouse
# Description: Confluent cells were labelled with [^3H]leucine (2μCi/ml) (NEN-PerkinElmer Life Sciences) for 48 h and then extensively washed and maintained in medium with an excess of unlabeled leucine. Proteolysis was calculated from aliquots of the medium taken at different times and precipitated in trichloroacetic acid, as the amount of acid-precipitable radioactivity transformed to acid-soluble radioactivity at each time. Where indicated cell were treated during the chase with […] leupeptin (Sigma, #108975) and […] NH4Cl (to determine lysosomal degradation) or with 100 μm MRT 68921 dihydrochloride (Tocris, #5780) (to determine macroautophagy degradation).
# [1] = system: neuroblastoma cell line N2a expressing the KFERQ-PS-Dendra reporter; assay: CMA activity, KFERQ-PS-Dendra reporter in N2a cells; assay type: cell-based, mouse; design: CMA activity, mean (Fig. S2a): unit not given here
# Description: (§1) Cells were transduced with lentivirus carrying the KFERQ-PS-Dendra reporter as before. Cells were photoactivated by exposure to a 3.5 mA (current constant) light emitting diode (LED: Norlux, 405 nm) for 3 min and then plated in glass-bottom 96 well plates. At the desired times, cells were fixed with 4% PFA and imaged using high-content microscopy (Operetta system, Perkin Elmer). Images were quantified using the manufacturer’s software in a minimum of 1,200 cells in 9 independent fields per well. […] This was particularly important in the case of primary human cells where the efficiency of transduction was ~65%. To avoid confounding effects for drug-induced changes in cell volume or adherence to the plate that could bring a fraction of the cells per field outside of focus, we set a threshold to count only […] that have at least 1/10 of the average number of […] detected in the untreated wells for each cell type (3–4 puncta/cell in the case of NIH3T3 and N2a cells and 5 puncta/cell in primary human fibroblasts).
# [2] = system: NIH3T3 stably expressing the KFERQ-PS-Dendra; assay: CMA activity, KFERQ-PS-Dendra fluorescent reporter in NIH3T3 mouse fibroblasts; assay type: cell-based; design: CMA activity (Fig. 1d), MEAN / CMA activity (Fig. 1e-g), mean / CMA activity (Fig. 1d), individual experiments / CMA activity, mean (Fig. S2c, second panel) / CMA activity, mean (Fig. S2c, first panel) / CMA activity, mean (Fig. S2c, third panel): unit not given here; settings: for CMA activity (Fig. 1e-g), mean: n = 4
# Description: as §1
smiles,measurement,setting,value
CC(=O)Nc1ccc(C2=Nc3ccc(Cl)cc3OC2)cc1 [CA77],duration of the increase in degradation of long-lived proteins,"NIH3T3; NIH3T3, 10 μM",remained upregulated 24 h
same,"Lysosomal proteolysis, Mean (Fig. S3c)",NIH3T3; Time 6,3.76
same,"Lysosomal proteolysis, Mean (Fig. S3c)",NIH3T3; Time 12,7.75
same,"CMA activity, mean relative to concentration 0 = 1 (Fig. S2b)","[1]; 12+12w, concentration 0.2",0.9934
same,"CMA activity, mean relative to concentration 0 = 1 (Fig. S2b)","[1]; 12+12w, concentration 2",0.9832
same,"CMA activity, mean relative to concentration 0 = 1 (Fig. S2b)","[1]; 12+12w, concentration 5",2.103
same,"CMA activity, mean relative to concentration 0 = 1 (Fig. S2b)","[1]; 12+12w, concentration 10",2.605
same,"CMA activity, mean relative to concentration 0 = 1 (Fig. S2b)","[1]; 12+12w, concentration 20",4.196
same,"CMA activity, mean relative to concentration 0 = 1 (Fig. S2b)","[1]; 12+12w, concentration 30",3.752
same,"CMA activity, mean (Fig. S2a)","[1]; 12h, concentration 0.02",2.724
same,"CMA activity, mean (Fig. S2a)","[1]; 12h, concentration 0.2",4.16
same,"CMA activity, mean relative to concentration 0 = 1 (Fig. S2b)","[1]; 12h, concentration 0.2",0.9543
same,"CMA activity, mean (Fig. S2a)","[1]; 12h, concentration 2",4.326
same,"CMA activity, mean relative to concentration 0 = 1 (Fig. S2b)","[1]; 12h, concentration 2",0.9922
same,"CMA activity, mean (Fig. S2a)","[1]; 12h, concentration 5",6.6688
same,"CMA activity, mean relative to concentration 0 = 1 (Fig. S2b)","[1]; 12h, concentration 5",1.5297
same,"CMA activity, mean (Fig. S2a)","[1]; 12h, concentration 10",9.952
same,"CMA activity, mean relative to concentration 0 = 1 (Fig. S2b)","[1]; 12h, concentration 10",2.283
same,"CMA activity, mean (Fig. S2a)","[1]; 12h, concentration 20",10.0764
same,"CMA activity, mean relative to concentration 0 = 1 (Fig. S2b)","[1]; 12h, concentration 20",2.311
same,"CMA activity, mean (Fig. S2a)","[1]; 12h, concentration 30",18.9972
same,"CMA activity, mean (Fig. S2a)","[1]; 12h, concentration 40",10.5987
same,"CMA activity, mean (Fig. S2a)","[1]; 12h, concentration 50",9.368
same,"CMA activity, mean (Fig. S2a)","[1]; 12h, concentration 60",2.016
same,"CMA activity, mean (Fig. S2a)","[1]; 24h, concentration 0.02",2.2722
same,"CMA activity, mean (Fig. S2a)","[1]; 24h, concentration 0.2",4.676
same,"CMA activity, mean relative to concentration 0 = 1 (Fig. S2b)","[1]; 24h, concentration 0.2",0.9787
same,"CMA activity, mean (Fig. S2a)","[1]; 24h, concentration 2",4.697
same,"CMA activity, mean relative to concentration 0 = 1 (Fig. S2b)","[1]; 24h, concentration 2",0.9831
same,"CMA activity, mean (Fig. S2a)","[1]; 24h, concentration 5",13.5914
same,"CMA activity, mean relative to concentration 0 = 1 (Fig. S2b)","[1]; 24h, concentration 5",2.845
same,"CMA activity, mean (Fig. S2a)","[1]; 24h, concentration 10",13.8573
same,"CMA activity, mean relative to concentration 0 = 1 (Fig. S2b)","[1]; 24h, concentration 10",2.901
same,"CMA activity, mean (Fig. S2a)","[1]; 24h, concentration 20",21.7668
same,"CMA activity, mean relative to concentration 0 = 1 (Fig. S2b)","[1]; 24h, concentration 20",4.556
same,"CMA activity, mean (Fig. S2a)","[1]; 24h, concentration 30",18.5853
same,"CMA activity, mean relative to concentration 0 = 1 (Fig. S2b)","[1]; 24h, concentration 30",3.89
same,"CMA activity, mean (Fig. S2a)","[1]; 24h, concentration 40",10.9146
same,"CMA activity, mean (Fig. S2a)","[1]; 24h, concentration 50",9.363
same,"CMA activity, mean (Fig. S2a)","[1]; 24h, concentration 60",0.7571
same,CMA activation in neuron-related mouse cells,[1]; in words,efficiently activated CMA
same,"CMA activity (Fig. 1d), MEAN","[2]; 20 μM of each compound, n = 3 independent experiments",3.597
same,"CMA activity (Fig. 1d), individual experiments","[2]; 20 μM of each compound, single experiments",3.288 and 3.538 and 3.964
same,"CMA activity (Fig. 1e-g), mean","[2]; 12h, concentration 0.02 (unit not given)",6.451
same,"CMA activity (Fig. 1e-g), mean","[2]; 12h, concentration 0.2",6.218
same,"CMA activity (Fig. 1e-g), mean","[2]; 12h, concentration 2",6.38
same,"CMA activity (Fig. 1e-g), mean","[2]; 12h, concentration 5",31.6977
same,"CMA activity (Fig. 1e-g), mean","[2]; 12h, concentration 10",39.5886
same,"CMA activity (Fig. 1e-g), mean","[2]; 12h, concentration 20",52.9995
same,"CMA activity (Fig. 1e-g), mean","[2]; 12h, concentration 30",60.386
same,"CMA activity (Fig. 1e-g), mean","[2]; 12h, concentration 40",43.8824
same,"CMA activity (Fig. 1e-g), mean","[2]; 12h, concentration 50",33.4774
same,"CMA activity (Fig. 1e-g), mean","[2]; 24h, concentration 0.02",5.564
same,"CMA activity (Fig. 1e-g), mean","[2]; 24h, concentration 0.2",6.782
same,"CMA activity (Fig. 1e-g), mean","[2]; 24h, concentration 2",8.318
same,"CMA activity (Fig. 1e-g), mean","[2]; 24h, concentration 5",26.3626
same,"CMA activity (Fig. 1e-g), mean","[2]; 24h, concentration 10",39.2844
same,"CMA activity (Fig. 1e-g), mean","[2]; 24h, concentration 20",59.6703
same,"CMA activity (Fig. 1e-g), mean","[2]; 24h, concentration 30",82.4074
same,"CMA activity (Fig. 1e-g), mean","[2]; 24h, concentration 40",57.9474
same,"CMA activity (Fig. 1e-g), mean","[2]; 24h, concentration 50",59.2412
same,"CMA activity (Fig. 1h-j), mean, untreated (0) = 1","[2]; concentration 0.2, 12+12w (12 h, then 12 h after washing out)",0.8003
same,"CMA activity (Fig. 1h-j), mean, untreated (0) = 1","[2]; concentration 0.2, 12h",0.5989
same,"CMA activity (Fig. 1h-j), mean, untreated (0) = 1","[2]; concentration 0.2, 24h",0.8798
same,"CMA activity (Fig. 1h-j), mean, untreated (0) = 1","[2]; concentration 2, 12+12w",0.935
same,"CMA activity (Fig. 1h-j), mean, untreated (0) = 1","[2]; concentration 2, 12h",0.6146
same,"CMA activity (Fig. 1h-j), mean, untreated (0) = 1","[2]; concentration 2, 24h",1.079
same,"CMA activity (Fig. 1h-j), mean, untreated (0) = 1","[2]; concentration 5, 12+12w",4.471
same,"CMA activity (Fig. 1h-j), mean, untreated (0) = 1","[2]; concentration 5, 12h",3.053
same,"CMA activity (Fig. 1h-j), mean, untreated (0) = 1","[2]; concentration 5, 24h",3.42
same,"CMA activity (Fig. 1h-j), mean, untreated (0) = 1","[2]; concentration 10, 12+12w",4.902
same,"CMA activity (Fig. 1h-j), mean, untreated (0) = 1","[2]; concentration 10, 12h",3.813
same,"CMA activity (Fig. 1h-j), mean, untreated (0) = 1","[2]; concentration 10, 24h",5.096
same,"CMA activity (Fig. 1h-j), mean, untreated (0) = 1","[2]; concentration 20, 12+12w",5.399
same,"CMA activity (Fig. 1h-j), mean, untreated (0) = 1","[2]; concentration 20, 12h",5.105
same,"CMA activity (Fig. 1h-j), mean, untreated (0) = 1","[2]; concentration 20, 24h",7.74
same,"CMA activity (Fig. 1h-j), mean, untreated (0) = 1","[2]; concentration 30, 12+12w",7.708
same,"CMA activity (Fig. 1h-j), mean, untreated (0) = 1","[2]; concentration 30, 12h",5.817
same,"CMA activity (Fig. 1h-j), mean, untreated (0) = 1","[2]; concentration 30, 24h",10.6896
same,CMA activation compared with AR7,"[2]; fluorescent CMA reporter in mouse fibroblasts, basal and inducible CMA",> 40 % CMA of AR7
same,toxicity in cells,[2]; mouse fibroblasts,without noticeable toxicity

# — PMC9304322, “Targeting retinoic acid receptor alpha-corepressor interaction activates chaperone-mediated autophagy and protects against retinal degeneration” (Nature Communications, 2022)
